The values below are quoted from earlier work in patent publication US11123293B2, “Liposomal formulation for joint lubrication” (MOEBIUS MEDICAL LTD., priority 2017, dated 2021).

Several values for one entry are separate records, joined by “and”; a condition that tells them apart may be missing. Identical values can stand only once. Like-named read-outs stand apart in the source and are kept apart here.

The conditions of series [1]: pure phospholipid, literature value.
For another series, the system named is joints of OA patients. The settings on record: injection into joints of OA patients, without major side effects.
Another series concerns rabbit's knee. The settings on record: solution, intra-articular injection into a rabbit's knee.

Consider `CCCCCCCCCCCCCCC(=O)OC[C@H](COP(=O)([O-])OCC[N+](C)(C)C)OC(=O)CCCCCCCCCCCCCC` [1,2-dipentadecanoyl-sn-glycero-3-phosphocholine], for which the Tm in series [1] is 33.0 °C. Take `CCCCCCCCCCCCC/C=C/[C@@H](O)[C@H](COP(=O)([O-])OCC[N+](C)(C)C)NC(=O)CCCCCCCCCCCCCCC` [D-erythro C16, N-palmitoyl-D-erythro-sphingosylphosphorylcholine]: the figures for the Tm in series [1] and in series [1] (listed as N-palmitoyl SM) were 41.0 °C and 41 °C, respectively. `CCCCCCCCCCCCCC(=O)OC[C@H](COP(=O)([O-])OCC[N+](C)(C)C)OC(=O)CCCCCCCCCCCCC` [DMPC, 1,2-dimyristoyl-sn-glycero-3-phosphocholine]: the Tm in series [1] is 23 °C and ~24 °C.

For `CCCCCCCCCCCCCC(=O)OC[C@H](COP(=O)(O)OCC(O)CO)OC(=O)CCCCCCCCCCCCC` (some centres unmarked) [DMPG, 1,2-dimyristoyl-sn-glycero-3-phosphorylglycerol], the Tm in series [1] was 23 °C.

`CCCCCCCCCCCCCCCC(=O)OC[C@H](COP(=O)([O-])OCC[N+](C)(C)C)OC(=O)CCCCCCCCCCCCCCC` [DPPC, 1,2-dipalmitoyl-sn-glycero-3-phosphocholine]: the Tm in series [1] was 41 °C and 41.4 °C. In addition, in the series with joints of OA patients, the mobility improvement lasting result is “up to 14 weeks”.

Take `CCCCCCCCCCCCCCCC(=O)OC[C@H](COP(=O)(O)OCC(O)CO)OC(=O)CCCCCCCCCCCCCCC` (some centres unmarked) [DPPG, 1,2-dipalmitoyl-sn-glycero-3-phosphorylglycerol]: the Tm in series [1] was 41 °C. As to `CCCCCCCCCCCCCCCCCC(=O)OC[C@H](COP(=O)([O-])OCC[N+](C)(C)C)OC(=O)CCCCCCCCCCCCCCCCC` [DSPC, 1,2-distearoyl-sn-glycero-3-phosphocholine], the Tm in series [1] was 55 °C. With `OCC(O)CO` [glycerol], the “prevention of joint irritation” value in the series on rabbit's knee is “did not prevent irritation”. With `OC[C@@H](O)[C@@H](O)[C@H](O)[C@H](O)CO` [mannitol], the “prevention of joint irritation” value with rabbit's knee is “did not prevent irritation”.
